Legend:
dry eye model [1] = test: Fluorescein staining score (corneal epithelial damage), dry eye model by erlotinib instillation (Example 1); format: in vivo; settings: 0.003% (w/v) apocynin eye drop twice daily, two weeks; erlotinib-instilled mice; FIG. 3
Description: After acclimating male C57BL6 mice (7 weeks old) to the experimental environment, those with almost uniform body weight values and no eye abnormalities were divided into the following 3 groups (n=5). • 7 weeks old/normal (non-dry eye group) • 7 weeks old/dry eye model+control (solvent eye drop) group • 7 weeks old/dry eye model+apocynin eye drop group The dry eye model was created by daily instillation of an EGF receptor inhibitor (erlotinib) based on the method of Yang et al. In this model, administration of erlotinib causes dry eye symptoms such as shortened BUT, decreased tear volume, and corneal damage after 1 week of administration (Non-patent Document 3). After 20 μM of erlotinib was instilled for 2 weeks, the control group received PBS alone, and the test group received 3 μL of a suspension of 0.003% (w/v) apocynin in PBS twice daily. […] Under anesthesia, the tip of a Schirmer test paper cut to 1 mm width was inserted into the conjunctival sac of the lower eyelid of the mouse, the test paper was removed after 5 minutes, the length of the wetted part was read in units of 0.5 mm, and the value was used as the tear volume (FIG. 2). In the dry eye model prepared in Example 1, after BUT measurement, fluorescein-stained images were photographed under a blue filter using a slit lamp (Kowa Co., Ltd., SL-17), and corneal epithelial damage was analyzed (FIG. 3). […]

dry eye model [2] = test: Fluorescein staining score, 0.2% benzalkonium chloride dry eye model, Comparative Study 2 (Example 5); format: in vivo, mice
Description: After acclimating male C57BL6 mice (7 weeks old) to the experimental environment, those with almost uniform weight values and no eye abnormalities were divided into the following groups (n=3 to 4). • 7 weeks old/normal (non-dry eye group) • 7 weeks old/dry eye model+control (solvent eye drop) group • 7 weeks old/dry eye model+0.003% (w/v) apocynin eye drop group • 7 weeks old/dry eye model+0.03% (w/v) apocynin eye drop group • 7 weeks old/dry eye model+3% diquafosol sodium eye drop group • 7 weeks old/dry eye model+0.5% (w/v) hyaluronic acid eye drop group A dry eye model was created by instilling 3 μL of the 0.2% benzalkonium chloride solution into each of both eyes twice a day for 8 days. Then, the control group received PBS alone, and the test group received 0.003% (w/v), 0.03% (w/v) apocynin and 0.5% (w/v) hyaluronic acid in PBS. The 3% diquafosol sodium eye drop was instilled into each of both eyes at 3 μL, twice a day for 9 days. In Example 5, 1, 2, 5, and 9 days after the start of instillation of the comparative test drug, 1 μL of 0.1% sodium fluorescein solution was instilled into each of both eyes. Fluorescein-stained images were observed under a blue filter using a slit lamp (Kowa Co., Ltd., SL-17), and the degree of corneal epithelial damage was scored.

meibomian glands = test: Meibomian gland silhouette and area, dry eye model by systemic erlotinib (Example 3); format: in vivo, mice; settings: 0.003% (w/v) apocynin eye drop, 2 weeks after start of instillation
Description: After acclimating male C57BL6 mice (7 weeks old) to the experimental environment, those with almost uniform body weight values and no eye abnormalities were divided into the following 3 groups (n=4). • 7 weeks old/normal (non-dry eye group) • 7 weeks old/dry eye model+control (solvent eye drop) group • 7 weeks old/dry eye model+apocynin eye drop group The dry eye model was prepared by dissolving erlotinib at a concentration of 5 mg/ml in 0.5% methylcellulose solution and administering it by intraperitoneal injection at a concentration of 50 mg/kg/day daily from the start of the study. The solvent 0.5% methylcellulose solution was similarly administered to the normal non-administration group. After one week of administration of erlotinib, the control group received PBS alone, and the test group received a solution of 0.003% (w/v) apocynin suspended in PBS twice a day at both eyes with 3 μL each. One week after the start of instillation, 1 μL of 0.1% sodium fluorescein solution was instilled into each of both eyes under isoflurane anesthesia, and the BUT test was performed under a blue filter using a slit lamp (Kowa Co., Ltd., SL-17) (FIG. 5). […] In addition, the image analysis software ImageJ was used to quantify the area of the meibomian gland silhouette image of the upper eyelid image (FIG. 7).

dry eye model [3] = test: Fluorescein staining score (corneal damage), dry eye model by systemic erlotinib (Example 3); format: in vivo, mice; settings: 0.003% (w/v) apocynin eye drop twice a day, one week after start, FIG. 6
Description: After acclimating male C57BL6 mice (7 weeks old) to the experimental environment, those with almost uniform body weight values and no eye abnormalities were divided into the following 3 groups (n=4). • 7 weeks old/normal (non-dry eye group) • 7 weeks old/dry eye model+control (solvent eye drop) group • 7 weeks old/dry eye model+apocynin eye drop group The dry eye model was prepared by dissolving erlotinib at a concentration of 5 mg/ml in 0.5% methylcellulose solution and administering it by intraperitoneal injection at a concentration of 50 mg/kg/day daily from the start of the study. The solvent 0.5% methylcellulose solution was similarly administered to the normal non-administration group. After one week of administration of erlotinib, the control group received PBS alone, and the test group received a solution of 0.003% (w/v) apocynin suspended in PBS twice a day at both eyes with 3 μL each. One week after the start of instillation, 1 μL of 0.1% sodium fluorescein solution was instilled into each of both eyes under isoflurane anesthesia, and the BUT test was performed under a blue filter using a slit lamp (Kowa Co., Ltd., SL-17) (FIG. 5). In Example 3, one week after the start of apocynin instillation, photographs were taken under isoflurane anesthesia, and the degree of corneal damage was scored (FIG. 6).

## COc1cc(C(C)=O)ccc1O [apocynin, 4-hydroxy-3-methoxyacetophenone]
Dry eye model [1]
  corneal epithelial damage (fluorescein staining score): significant improvement was observed
Dry eye model [2]; 0.003% apocynin eye drop, 9 days after start, compared to control, hyaluronic acid and diquafosol sodium groups, FIG. 11B
  fluorescein staining score (corneal epithelial damage): significantly improved
Dry eye model [2]; 0.03% apocynin eye drop, 9 days after start, compared to control, hyaluronic acid and diquafosol sodium groups, FIG. 11B
  fluorescein staining score (corneal epithelial damage): significantly improved
Dry eye model [2]; two days after start, compared with control, 0.03% apocynin, 0.5% (w/v) hyaluronic acid or 3% diquafosol sodium twice a day, FIG. 11A
  fluorescein staining score (corneal epithelial damage): decreased significantly
Meibomian glands; FIG. 7A
  missing parts of meibomian glands (silhouette image of upper eyelid): reduced the missing parts
Meibomian glands; ImageJ, FIG. 7B
  meibomian gland silhouette area (atrophy of the meibomian glands): significantly inhibits atrophy of the meibomian glands
Dry eye model [3]
  corneal epithelial damage (fluorescein staining score): significantly improved
